The source made the active and inactive calls.
Assays:
[1] = biological target: T1, Carboxy-terminal domain RNA polymerase II polypeptide A small phosphatase 1 (Homo sapiens, UniProt Q9GZU7); experiment: inhibitors of CTDSP1, concentration-response testing, biochemical assay, absorbance-based, actives from ultra-high-throughput screening (AID 540297); type: functional
T1 sequence (Q9GZU7 whole entry): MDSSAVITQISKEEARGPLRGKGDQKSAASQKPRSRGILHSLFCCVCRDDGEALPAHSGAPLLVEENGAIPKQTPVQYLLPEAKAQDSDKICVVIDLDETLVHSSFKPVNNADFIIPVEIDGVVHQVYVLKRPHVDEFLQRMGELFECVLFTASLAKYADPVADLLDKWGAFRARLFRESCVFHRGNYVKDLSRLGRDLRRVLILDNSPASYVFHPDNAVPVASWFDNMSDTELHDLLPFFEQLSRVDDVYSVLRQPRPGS

[2] = tested on: Vero; experiment: Vero cell cytotoxicity, cytotoxicity control for flavivirus capping enzyme inhibitors (AID 588742); type: functional; details: Chlorocebus sabaeus
[3] = biological target: T2, Corticotropin-releasing factor receptor 2/Corticotropin-releasing factor-binding protein (Homo sapiens, UniProt P24387+Q13324); experiment: Dose Response confirmation of uHTS hits for small molecule antagonists of the CRF-binding protein and CRF-R2 receptor complex.; type: functional; details: read-out: IC50_Mean
T2 sequence (Q13324 whole entry): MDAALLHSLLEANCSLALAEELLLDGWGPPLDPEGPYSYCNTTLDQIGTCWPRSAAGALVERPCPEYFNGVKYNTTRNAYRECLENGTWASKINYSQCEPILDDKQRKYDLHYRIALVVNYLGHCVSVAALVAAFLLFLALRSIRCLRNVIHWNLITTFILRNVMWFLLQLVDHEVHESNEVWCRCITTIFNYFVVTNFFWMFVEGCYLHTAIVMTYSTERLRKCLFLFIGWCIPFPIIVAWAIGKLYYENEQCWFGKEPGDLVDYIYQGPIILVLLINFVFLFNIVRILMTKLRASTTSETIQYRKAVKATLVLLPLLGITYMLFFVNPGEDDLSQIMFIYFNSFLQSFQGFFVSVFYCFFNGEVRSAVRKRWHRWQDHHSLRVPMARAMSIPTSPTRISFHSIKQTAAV
T2 sequence (P24387 whole entry): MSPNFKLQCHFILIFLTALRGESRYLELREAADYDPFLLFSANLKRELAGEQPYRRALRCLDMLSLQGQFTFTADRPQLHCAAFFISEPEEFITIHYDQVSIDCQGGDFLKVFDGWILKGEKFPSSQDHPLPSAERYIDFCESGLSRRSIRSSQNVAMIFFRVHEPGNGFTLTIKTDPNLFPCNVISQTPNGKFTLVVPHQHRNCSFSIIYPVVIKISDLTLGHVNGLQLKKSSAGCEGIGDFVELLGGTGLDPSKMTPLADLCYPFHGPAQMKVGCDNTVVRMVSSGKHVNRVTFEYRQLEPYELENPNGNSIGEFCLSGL

[4] = biological target: T2, Corticotropin-releasing factor receptor 2/Corticotropin-releasing factor-binding protein; experiment: activators of CRF receptor 2 with binding protein – uHTS hits, confirmation (AID 602473); type: functional; details: read-out: EC50_Mean
[5] = biological target: Genome polyprotein (dengue virus type 2, UniProt P29990); experiment: Dengue-2 NS5 methyltransferase inhibitors, primary screen, biochemical, confirmation dose response (AID 588689); type: functional
Genome polyprotein, sequence (P29990 2492-3391 limits assumed): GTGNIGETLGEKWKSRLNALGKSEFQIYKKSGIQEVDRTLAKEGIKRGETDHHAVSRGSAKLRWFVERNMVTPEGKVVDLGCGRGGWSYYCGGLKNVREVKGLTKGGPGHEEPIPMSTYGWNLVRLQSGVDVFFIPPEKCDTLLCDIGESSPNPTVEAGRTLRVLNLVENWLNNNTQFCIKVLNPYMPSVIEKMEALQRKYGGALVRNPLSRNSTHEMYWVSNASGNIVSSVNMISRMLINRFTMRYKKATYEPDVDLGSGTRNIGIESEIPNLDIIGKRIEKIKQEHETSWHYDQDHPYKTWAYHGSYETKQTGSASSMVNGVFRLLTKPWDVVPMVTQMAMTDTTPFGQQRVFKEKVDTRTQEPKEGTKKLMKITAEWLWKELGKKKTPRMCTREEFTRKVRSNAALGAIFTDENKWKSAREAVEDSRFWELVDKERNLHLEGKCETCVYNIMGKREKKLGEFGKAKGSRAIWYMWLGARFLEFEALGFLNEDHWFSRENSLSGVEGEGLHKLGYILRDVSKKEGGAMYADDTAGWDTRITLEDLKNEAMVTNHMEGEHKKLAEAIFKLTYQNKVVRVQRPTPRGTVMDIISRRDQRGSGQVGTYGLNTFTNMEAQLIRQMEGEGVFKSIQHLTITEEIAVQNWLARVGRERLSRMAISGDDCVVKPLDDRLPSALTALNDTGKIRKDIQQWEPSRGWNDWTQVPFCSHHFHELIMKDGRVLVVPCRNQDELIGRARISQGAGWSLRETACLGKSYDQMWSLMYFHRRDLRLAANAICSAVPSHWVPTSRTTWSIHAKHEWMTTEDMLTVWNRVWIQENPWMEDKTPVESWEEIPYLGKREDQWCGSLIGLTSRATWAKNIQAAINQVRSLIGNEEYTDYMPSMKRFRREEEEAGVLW

[6] = biological target: T3, Replicative DNA helicase DnaB (Mycobacterium tuberculosis, UniProt P9WMR3); experiment: DnaB intein splicing inhibitors, dose response, biochemical, cell-free fluorescence (AID 449749); type: functional
T3 sequence (P9WMR3 whole entry): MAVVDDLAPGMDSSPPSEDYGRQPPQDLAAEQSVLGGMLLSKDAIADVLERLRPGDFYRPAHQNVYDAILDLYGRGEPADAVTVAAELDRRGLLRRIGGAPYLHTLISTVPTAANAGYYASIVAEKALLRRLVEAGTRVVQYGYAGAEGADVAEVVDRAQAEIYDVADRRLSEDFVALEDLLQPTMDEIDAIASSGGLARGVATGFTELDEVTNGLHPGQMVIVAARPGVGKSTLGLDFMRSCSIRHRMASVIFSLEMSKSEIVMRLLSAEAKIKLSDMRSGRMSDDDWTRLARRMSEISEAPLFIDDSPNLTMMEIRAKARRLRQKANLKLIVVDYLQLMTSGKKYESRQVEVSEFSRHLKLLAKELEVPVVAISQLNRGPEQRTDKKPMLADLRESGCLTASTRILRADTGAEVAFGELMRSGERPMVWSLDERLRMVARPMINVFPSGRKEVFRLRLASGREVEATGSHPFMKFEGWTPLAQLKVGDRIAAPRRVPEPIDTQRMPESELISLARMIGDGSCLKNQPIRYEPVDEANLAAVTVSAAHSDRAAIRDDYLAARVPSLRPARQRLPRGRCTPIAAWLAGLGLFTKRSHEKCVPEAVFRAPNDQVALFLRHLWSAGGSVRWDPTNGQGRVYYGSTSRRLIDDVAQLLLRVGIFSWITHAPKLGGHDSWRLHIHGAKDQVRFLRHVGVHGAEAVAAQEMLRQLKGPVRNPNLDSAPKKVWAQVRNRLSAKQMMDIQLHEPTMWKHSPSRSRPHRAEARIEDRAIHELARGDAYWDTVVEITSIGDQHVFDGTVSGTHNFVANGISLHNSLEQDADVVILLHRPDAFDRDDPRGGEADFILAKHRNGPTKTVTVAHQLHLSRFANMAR

[7] = biological target: T4, Protein RecA (Mycobacterium tuberculosis, UniProt P9WHJ3); experiment: Fluorescence Cell-Free Homogeneous Dose Retest to Identify Inhibitors of RecA-Intein Splicing Activity. [Related pubchem assays (depositor defined):AID2097, AID2223, AID489010, AID492950]; type: functional
T4 sequence (P9WHJ3 whole entry): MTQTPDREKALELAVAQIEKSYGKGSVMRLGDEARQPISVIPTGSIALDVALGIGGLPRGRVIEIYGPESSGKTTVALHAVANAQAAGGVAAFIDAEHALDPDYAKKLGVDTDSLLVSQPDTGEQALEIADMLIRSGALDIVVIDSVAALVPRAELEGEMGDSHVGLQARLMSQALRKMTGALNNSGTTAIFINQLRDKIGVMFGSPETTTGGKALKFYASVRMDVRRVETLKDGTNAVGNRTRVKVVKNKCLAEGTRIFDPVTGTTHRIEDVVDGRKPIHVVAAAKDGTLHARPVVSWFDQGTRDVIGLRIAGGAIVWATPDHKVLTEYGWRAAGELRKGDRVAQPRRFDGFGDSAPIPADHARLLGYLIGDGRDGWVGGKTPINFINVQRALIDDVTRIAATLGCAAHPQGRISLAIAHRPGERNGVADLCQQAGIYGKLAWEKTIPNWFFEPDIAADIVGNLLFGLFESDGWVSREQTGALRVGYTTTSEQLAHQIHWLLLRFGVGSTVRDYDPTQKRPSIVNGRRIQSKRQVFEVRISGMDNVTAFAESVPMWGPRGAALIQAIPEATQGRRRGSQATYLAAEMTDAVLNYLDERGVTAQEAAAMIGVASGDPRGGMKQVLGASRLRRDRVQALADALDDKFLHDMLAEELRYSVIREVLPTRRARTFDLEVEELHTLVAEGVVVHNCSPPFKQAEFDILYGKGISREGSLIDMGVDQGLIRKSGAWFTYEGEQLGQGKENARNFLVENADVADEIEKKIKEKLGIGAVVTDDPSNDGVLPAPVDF

[8] = biological target: Luciferin 4-monooxygenase (Photinus pyralis, UniProt P08659); experiment: firefly luciferase enzyme inhibitors, dose response, biochemical, luminescence (AID 1891)
Luciferin 4-monooxygenase, sequence (P08659 whole entry): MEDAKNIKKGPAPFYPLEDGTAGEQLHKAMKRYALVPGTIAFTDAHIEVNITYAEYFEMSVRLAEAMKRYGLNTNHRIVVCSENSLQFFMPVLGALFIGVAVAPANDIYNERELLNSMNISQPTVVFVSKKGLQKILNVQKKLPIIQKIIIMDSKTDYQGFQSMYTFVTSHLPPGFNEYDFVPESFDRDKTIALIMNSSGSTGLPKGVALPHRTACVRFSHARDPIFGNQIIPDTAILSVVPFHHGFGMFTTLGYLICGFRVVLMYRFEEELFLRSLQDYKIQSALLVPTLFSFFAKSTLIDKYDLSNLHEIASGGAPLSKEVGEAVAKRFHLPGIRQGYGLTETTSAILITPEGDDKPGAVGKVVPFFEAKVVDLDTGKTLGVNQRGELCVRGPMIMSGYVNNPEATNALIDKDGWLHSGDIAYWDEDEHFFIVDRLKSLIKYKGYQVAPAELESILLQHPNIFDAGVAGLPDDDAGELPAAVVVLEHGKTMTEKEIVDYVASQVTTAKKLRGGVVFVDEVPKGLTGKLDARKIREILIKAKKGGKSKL

[9] = Luminescence Cell-Based Dose Confirmation HTS to Identify Inhibitors of Platelet Dense Granule Release. [Related pubchem assays: 1663 (Primary HTS), 1678 (Summary of Project)]; type: functional
[10] = inhibitors of intracellular T. cruzi replication, confirmation, NIH3T3 host cells, beta-gal luminescence (AID 2044); type: functional, cell-based;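 further: intracellular parasites grown in NIH/3T3 mouse fibroblasts as host cells; luminescent beta-galactosidase reporter signal from transgenic T. cruzi replicating inside host cells; inhibitors lower the luminescence signal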
[11] = cytotoxicity toward NIH3T3 fibroblasts, dose response, counter-screen, cell-based, ATP luminescence, mouse fibroblasts (AID 2010); type: functional;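 further: cells exposed to compound for about 90 hours before reading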
[12] = THP-1 cell cytotoxicity, dose response, cytotoxicity control for Vif-APOBEC3G degradation inhibitor project, THP-1 cells (AID 1117359); type: functional; details: Human immunodeficiency virus 1, THP-1
[13] = biological target: Nonstructural protein 1 (Influenza A virus, UniProt Q194T2); type: functional, Influenza A virus (A/California/07/2009(H1N1))
Nonstructural protein 1, sequence (Q194T2 whole entry): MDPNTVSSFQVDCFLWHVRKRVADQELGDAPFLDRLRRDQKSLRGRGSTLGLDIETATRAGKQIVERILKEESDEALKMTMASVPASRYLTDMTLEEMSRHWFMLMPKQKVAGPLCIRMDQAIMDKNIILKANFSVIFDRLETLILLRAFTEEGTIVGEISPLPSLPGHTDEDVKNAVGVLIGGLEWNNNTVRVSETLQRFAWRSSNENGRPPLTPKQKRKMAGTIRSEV

[14] = tested on: INS1; experiment: beta cell apoptosis inhibitors, cytokine rescue, dose response, luminescence, retest (AID 449756); type: functional, cell-based; details: Rattus norvegicus;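 further: cell death triggered by IL-1 beta plus TNF-alpha plus IFN-gamma mixture; protective hits raise ATP signal compared with cytokine alone wells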
[15] = HEp-2 cell cytotoxicity, dose response, cytotoxicity control for RSV inhibitor project, HTS (AID 2410); type: functional; details: human respiratory syncytial virus
[16] = P. falciparum Dd2 growth inhibitors, dose response, SYBR Green, cherry-picked samples (AID 1159567); type: functional, cell-based

O=C(O)c1ccc(CNc2ccccc2C(=O)O)cc1
IC50 [1]: 25.3 µM (active)

CC1=NN(C(N)=S)C(=O)C1N=Nc1cccc(Cl)c1C (stereo not given)
CC50 [2]: > 40 µM (active)

COC(=O)c1cc(OC)c(OC)cc1NC(=O)C(C)Sc1ccc(C)cc1 (stereo not given)
IC50 [3]: > 47.1 µM (inactive) | EC50 [4]: > 53 µM (inactive)

O=C(CCN1C(=O)/C(=C/c2ccc3c(c2)OCO3)SC1=S)Nc1cccc(C(=O)O)c1
IC50 [5]: 47 µM (active) | IC50 [1]: 6.78 µM (active)

CCOc1ccc(/C=C2\SC(=S)N(CCC(=O)Nc3ccccc3C(=O)O)C2=O)cc1
AC50 [6]: 6.1 µM (active) | EC50 [7]: 15.1 µM (active) | IC50 [5]: 29.3 µM (active) | IC50 [1]: 4.86 µM (active)

Cc1ccc2[nH]c(/C(C#N)=C/c3ccc(-c4ccccc4C(=O)O)o3)nc2c1
IC50 [1]: 17 µM (active)

O=C(c1ccccc1)c1ccc2[nH]c(-c3ccc(NC(=O)c4ccccc4F)cc3)nc2c1
EC50 [8]: > 112 µM (not active) | EC50 [9]: > 112 µM (not active)

O=C(Nc1cccc(N2CCCC2)c1)c1cccs1
EC50 [8]: > 112 µM (not active) | EC50 [9]: > 112 µM (not active) | EC50 [10]: 4.67 µM (active) | EC50 [11]: > 60 µM (not active)

O=C(CN(CCCN1CCOCC1)C(=O)Cn1nnc(-c2ccc(F)cc2)n1)NC1CCCCC1
EC50 [8]: > 112 µM (not active) | EC50 [9]: > 112 µM (not active)

O=C1c2ccccc2C(Nc2ccc3c(c2)OCO3)N1Cc1ccco1 (stereo not given)
EC50 [8]: > 112 µM (not active) | EC50 [9]: > 112 µM (not active)

COC(=O)c1ccc(C)c(NC(=O)CSc2sc3c(O)cc(=O)[nH]c3c2C#N)c1
IC50 [1]: 3.04 µM (active)

Cc1ccccc1CCNC(=O)c1ccc(Cl)c(S(=O)(=O)N2CC(C)OC(C)C2)c1 (stereo not given)
CC50 [12]: > 40 µM (active)

CN1/C(=C\C(=S)NC(=O)c2ccccc2Cl)C(C)(C)c2ccccc21
IC50 [13]: 29.3 µM (active) | AC50 [14]: 8.03 µM (active)

CC1C/C(=C/c2ccco2)C(=O)/C(=C/c2ccco2)C1 (stereo not given)
CC50 [12]: > 40 µM (active)

CCc1ccc(-c2cc(C)no2)cc1S(=O)(=O)N1CCN(c2ccccc2OC)CC1
EC50 [8]: > 112 µM (not active) | EC50 [9]: > 112 µM (not active)

Cc1ccc(C2CC(c3ccccc3)=NN2C(=O)CSc2nnc(-c3ccc(Cl)cc3)o2)o1 (stereo not given)
EC50 [8]: > 112 µM (not active) | EC50 [9]: > 112 µM (not active)

O=C(Nc1cccc(S(=O)(=O)N2CCCCC2)c1)c1ccc(S(=O)(=O)C(F)F)cc1
IC50 [3]: > 47.1 µM (inactive) | EC50 [4]: > 53 µM (inactive)

Cc1ccc(S(=O)(=O)N2[C@@H](c3ccc(Br)cc3)C(C(=O)O)=C[C@H]2CC2CCCC2)cc1
CC50 [2]: > 40 µM (active) | IC50 [5]: 37 µM (active)

Cc1c(Cl)cccc1N1C(=O)c2ccccc2C1=O
IC50 [3]: > 47.1 µM (inactive) | EC50 [4]: > 53 µM (inactive)

CC1=C(SCc2ccccc2)C(=O)c2ccccc2C1=O
CC50 [2]: > 40 µM (active) | IC50 [5]: 76.8 µM (active) | CC50 [12]: 34.6 µM (active)

COc1ccc(Cl)cc1C=CC=NNC(=O)c1ccncc1
IC50 [1]: 18.9 µM (active)

C=C(C)CNC(=S)N/N=C(\C)c1ccc(OC)cc1
EC50 [8]: > 112 µM (not active) | EC50 [9]: 30.5 µM (active)

C/C(=N\NC(=O)c1ccc(NS(=O)(=O)c2cccs2)cc1)c1ccc2ccccc2c1
CC50 [15]: 16.7 µM (active) | EC50 [8]: > 112 µM (not active) | EC50 [9]: > 112 µM (not active)

N#Cc1c(/N=C/c2ccc(-c3ccccc3C(=O)O)o2)sc2c1CCCC2
IC50 [1]: 9.17 µM (active)

COc1ccc2c3c(n(C)c2c1)[C@@H](CO)N(Cc1ccccc1F)CC31CCN(CC2CC2)CC1
AC50 [16]: 2.61 µM (active)

COc1ccc(-c2ccc3c(c2)[C@H]2[C@H](CCN2Cc2ccncc2)[C@@H](CO)N3)cc1
AC50 [16]: 7.26 µM (active)

COc1ccc2c3c([nH]c2c1)[C@@H](CO)N(C(=O)C1CCCCC1)CC31CCN(Cc2nccs2)CC1
AC50 [16]: 4.44 µM (active)

COc1ccc(C#Cc2ccc3c(c2)[C@@H]2[C@@H](CCN2C(=O)C2CC2)[C@H](CO)N3)cc1
AC50 [16]: 5.56 µM (active)
